# Laboratory results published in patent US5587402A, “Regression of mammalian leukemia cell tumors” (priority 1995, dated 1996).
# Tests used:
# [1] = system: isoprenylation of 21-26 kDa proteins in NIH3T3 (mouse embryo) cells; assay: Protein isoprenylation in NIH3T3 cells (21-26 kDa bands, SDS-PAGE fluorography); type: cell-based
# Procedure: NIH3T3 (mouse embryo) cells were obtained from the American Type Culture Collection and were grown in Dulbecco's modified Eagle's medium supplemented with 10% calf serum. […] Because they carried a radioactive label, isoprenylated proteins were visualized by fluorography. As a control, cells were incubated without the monoterpene. […] Whole cell extracts were analyzed by SDS-PAGE on 16-cm×18-cm×0.75-mm gels by the method of Laemmli (supra). […] Gels were stained with Coomassie Brilliant Blue, equilibrated for 20 minutes in Amplify (Amersham Corp.) fluorographic reagent, dried under vacuum at 65° C., and exposed to […] Some fluorograms were analyzed further by densitometry. […] Protein content was measured by the method of Lowry, et al. […] FIG. 1 depicts the structures of these monoterpenes.
# [2] = system: isoprenylation of 21-26 kDa proteins in M600B cells; assay: Protein isoprenylation in M600B human mammary epithelial cells; type: cell-based
# [3] = system: DMBA-induced rat mammary carcinomas; assay: Pair-feeding study: regression and inhibition of DMBA-induced mammary carcinomas in rats; type: in vivo, Wistar-Furth female rats
# Procedure: We used Wistar-Furth female rats for in vivo studies. Wistar-Furth female rats were obtained from Harlan Sprague-Dawley, Inc., (Madison, Wis.). […] Rates were provided Teklad Lab blox chow and acidified water ad libitum.
# The DMBA was dissolved in a stock solution of 20 mg DMBA/ml sesame oil, heated and allowed to cool to room temperature before administration. DMBA (Eastman Kodak, Rochester, N.Y.) was given as a single gastric intubation of 50 mg DMBA/kg rat body weight.
# In the pair-feeding study, a group of 70 mammals was treated with DMBA. Beginning four weeks post-carcinogen administration, mammals were weighed and palpated weekly.
# Fresh diets were make every 7-10 days. All mammals were provided fresh diet daily to minimize evaporation of the monoterpenes.
# In a pair-feeding study, all palpable mammary tumors were classified as either "primary" tumors (i.e., the first tumor(s) palpated with a minimum diameter of 3 mm) or "secondary" tumors (i.e. a palpable tumor arising after initial diet assignment). […] All carcinogen-exposed mammals not bearing a first palpable tumor by week 15 post-carcinogen were removed from the experiment. Complete regression of a tumor was defined as non-palpability for a minimum of three consecutive weeks. All mammals in the pair-feeding study were followed for a minimum of 10 weeks post-diet assignment for tumor growth or regression at primary tumor sites and all other mammary glands. The rats were necropsied if moribund. Complete necropsies were performed on all rats at the termination of the study.
# [4] = system: p210-transformed FDC-P1 cells; assay: Proliferation of p210 bcr/abl-transformed FDC-P1 myeloid cells; type: cell-based, murine; conditions: up to 800 μM; FIG. 9A
# Procedure: (§1) (The p210 bcr/abl oncogene is carried on a helper-free retrovirus referred to as "p210.") FDC-P1 myeloid cells are an immature cell line from myeloid lineage derived from mouse bone marrow (Dexter, TM, J. Exp. Med. 152: 1036-1047, 1980).
# [5] = system: nontransformed FDC-P1 cells; assay: Proliferation of nontransformed FDC-P1 myeloid cells; type: cell-based, murine; conditions: up to 800 μM; FIG. 9A
# Procedure: as §1
# [6] = system: mammary, lung, and stomach cancers; conditions: literature; cited from earlier work
# [7] = cited from earlier work
# [8] = system: NIH3T3 cells; assay: Inhibition of NIH3T3 cell growth; type: cell-based, mouse; conditions: FIG. 3
# Procedure: (§2) NIH3T3 (mouse embryo) cells were obtained from the American Type Culture Collection and were grown in Dulbecco's modified Eagle's medium supplemented with 10% calf serum. M600B immortalized human mammary epithelial cells (Stampfer, M. R., 1985, J. Tissue Culture Methods 9: 107-115) were obtained from Dr. Martha Stampfer and were grown in supplemented HCDB 170 medium (Hammond, et al. (1984) Proc. Natl. Acad. Sci U.S.A. 81: 5435-5439), as described previously (Stampfer, et al. (1985) Proc. Natl. Acad. Sci U.S.A. 82: 2394-2398; Eldridge, et al. (1989) Cancer Res. 49: 4326-4331).
# (§3) All cells were maintained in 100-mm dishes at 37° C. in a humidified 5% CO2 atmosphere. Viable cells were distinguished from nonviable cells by counting azure II/methylene blue-stained colonies 10 days after the cells were plated at a density of 100 cells per dish. Trypan blue exclusion was measured by incubating cells for 1 minute with one drop of trypan blue per 10 ml of cells. Viable (colorless) and nonviable (blue) cells were then counted on a hemocytometer.
# (§4) Additionally, growth of HT29 (human colon adenocarcinoma) cells was inhibited by 80% by 1 mM perillyl alcohol.
# [9] = system: M600B cells; assay: Inhibition of M600B cell growth; type: cell-based, human; conditions: FIG. 4
# Procedure: as §2, §3, §4
compound,measurement,setting,value
"C=C(C)[C@H]1CC=C(C)CC1 [limonene, d-Limonene]",intensity of the 21-26-kDa bands,"[1]; 0.5 mM or 5 mM, fluorography",dose-responsive decrease in intensity
same,"intensity of the 66-, 46-, and 17-kDa bands","[1]; 0.5 mM or 5 mM, fluorography",not different from that of the control
same,activity at 500 µM,"[1]; Mus musculus, NIH3T3, 0.5 mM, slicing and scintillation counting, as reported in Crowell et al. (own work), read-out: isoprenylation of the 21-26-kDa bands remaining, of the control",~50%
same,activity at 5000 µM,"[1]; Mus musculus, NIH3T3, 5 mM, slicing and scintillation counting, as reported in Crowell et al. (own work), read-out: isoprenylation of the 21-26-kDa bands remaining, of the control",~25%
same,spot at the dye front,[1]; fluorography,reduced with maximal inhibition at 5 mM
same,intensity of the 21-26 kDa bands,[2]; 5 mM limonene,marked decrease in the intensity of the 21-26 kDa bands
same,minimal effective concentration,"[2]; Homo sapiens, Epithelial cell, dose responsive, read-out: concentration required for significant inhibition of protein isoprenylation",≥ 1000 µM
same,number of secondary tumors compared with perillyl alcohol-fed mammals,[3]; 10% limonene diet versus 2.5% perillyl alcohol diet,higher
same,Time to Regress,"[3]; 10% limonene diet, Kaplan-Meier estimate of time when 25% of tumors will have regressed, p < 0.01, pair-fed control 14.5",3.25 wks
same,Primary Tumor Regression (tumors regressed / tumors),"[3]; 10% limonene diet, complete regression, p < 0.01 vs controls",19/28
same,Primary Tumor Regression (%),"[3]; 10% limonene diet, complete regression, pair-fed control 23%",68%
same,Number of Secondary Tumors/Rat,"[3]; 10% limonene diet, p < 0.01, pair-fed control 1.92",1.08
same,Secondary Tumor Regression (tumors regressed / tumors),"[3]; 10% limonene diet, p < 0.01, pair-fed control 9/48",17/27
same,Secondary Tumor Regression (%),"[3]; 10% limonene diet, pair-fed control 19%",63%
same,effect on proliferation,[4],no effect
same,effect on proliferation,[5],no effect
same,"activity against mammary, lung, and stomach cancers",[6],reported to have activity against mammary
same,toxicity to humans,[7]; at the required usage levels,not toxic to humans
same,side-effects,[7]; particularly when a large dose is required in a short period,not without some side-effects
"C=C(C)[C@@H]1CC=C(C(=O)O)CC1 [Perillic acid, reference compound]",isoprenylation of 21-26 kDa proteins,"[2]; 5 mM, FIG. 2",inhibited significantly
same,inhibition of isoprenylation,[2]; all cell types examined,inhibition of isoprenylation
same,inhibition of cell growth,[8],significantly inhibited cell growth in a dose-dependent manner
same,inhibition of cell growth,[9],significantly inhibited cell growth in a dose-dependent manner
